Assays:
[1] = tested on: Colo320; assay: cells; type: cell-based; conditions: assay number 27
[2] = tested on: HT-29; assay: cells; type: cell-based; conditions: assay number 28
[3] = tested on: nuclear β-catenin in C2C12 cells; assay: cells; type: cell-based; conditions: assay number 5; concentration response
[4] = tested on: SNU-C1; assay: cells; type: cell-based; conditions: assay number 30
[5] = tested on: HCT116; assay: cells; type: cell-based; conditions: assay number 25; basal
[6] = tested on: HCT116 cells treated with a GSK3β inhibitor; assay: cells; type: cell-based; conditions: assay number 26; GSK3b inhibitor pretreated
[7] = biological target: T1, hp70S6K1 (RPS6KB1) (Homo sapiens, UniProt P23443); assay: Cerep LANCE kinase assay hp70S6K1 (S1 assay 31); type: biochemical; conditions: assay number 31
T1 construct: purchased Cerep (LANCE kinase assay platform, contract assay)
T1 sequence (P23443 whole entry): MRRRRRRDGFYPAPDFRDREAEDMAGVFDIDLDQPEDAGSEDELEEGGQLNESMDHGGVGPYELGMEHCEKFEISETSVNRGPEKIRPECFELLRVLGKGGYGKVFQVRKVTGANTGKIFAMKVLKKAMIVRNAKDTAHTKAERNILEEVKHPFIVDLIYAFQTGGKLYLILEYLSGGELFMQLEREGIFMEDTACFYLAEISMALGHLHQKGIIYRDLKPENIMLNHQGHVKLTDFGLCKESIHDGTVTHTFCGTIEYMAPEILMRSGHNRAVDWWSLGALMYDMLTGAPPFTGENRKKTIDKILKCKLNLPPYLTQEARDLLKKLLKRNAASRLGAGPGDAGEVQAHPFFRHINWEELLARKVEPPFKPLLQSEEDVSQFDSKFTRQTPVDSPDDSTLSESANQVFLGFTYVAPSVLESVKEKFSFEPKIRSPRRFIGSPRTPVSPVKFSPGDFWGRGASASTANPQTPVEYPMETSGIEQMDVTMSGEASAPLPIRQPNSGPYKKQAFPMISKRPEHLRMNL

[8] = tested on: alkaline phosphatase (ALP) activity in C2C12 cells; type: cell-based; conditions: assay number 6; concentration response
[9] = biological target: T2, hKDR (Homo sapiens, UniProt P35968); assay: Cerep LANCE kinase assay hKDR (S1 assay 32); type: biochemical; conditions: assay number 32
T2 construct: purchased Cerep (LANCE kinase assay platform, contract assay)
T2 sequence (P35968 20-1356): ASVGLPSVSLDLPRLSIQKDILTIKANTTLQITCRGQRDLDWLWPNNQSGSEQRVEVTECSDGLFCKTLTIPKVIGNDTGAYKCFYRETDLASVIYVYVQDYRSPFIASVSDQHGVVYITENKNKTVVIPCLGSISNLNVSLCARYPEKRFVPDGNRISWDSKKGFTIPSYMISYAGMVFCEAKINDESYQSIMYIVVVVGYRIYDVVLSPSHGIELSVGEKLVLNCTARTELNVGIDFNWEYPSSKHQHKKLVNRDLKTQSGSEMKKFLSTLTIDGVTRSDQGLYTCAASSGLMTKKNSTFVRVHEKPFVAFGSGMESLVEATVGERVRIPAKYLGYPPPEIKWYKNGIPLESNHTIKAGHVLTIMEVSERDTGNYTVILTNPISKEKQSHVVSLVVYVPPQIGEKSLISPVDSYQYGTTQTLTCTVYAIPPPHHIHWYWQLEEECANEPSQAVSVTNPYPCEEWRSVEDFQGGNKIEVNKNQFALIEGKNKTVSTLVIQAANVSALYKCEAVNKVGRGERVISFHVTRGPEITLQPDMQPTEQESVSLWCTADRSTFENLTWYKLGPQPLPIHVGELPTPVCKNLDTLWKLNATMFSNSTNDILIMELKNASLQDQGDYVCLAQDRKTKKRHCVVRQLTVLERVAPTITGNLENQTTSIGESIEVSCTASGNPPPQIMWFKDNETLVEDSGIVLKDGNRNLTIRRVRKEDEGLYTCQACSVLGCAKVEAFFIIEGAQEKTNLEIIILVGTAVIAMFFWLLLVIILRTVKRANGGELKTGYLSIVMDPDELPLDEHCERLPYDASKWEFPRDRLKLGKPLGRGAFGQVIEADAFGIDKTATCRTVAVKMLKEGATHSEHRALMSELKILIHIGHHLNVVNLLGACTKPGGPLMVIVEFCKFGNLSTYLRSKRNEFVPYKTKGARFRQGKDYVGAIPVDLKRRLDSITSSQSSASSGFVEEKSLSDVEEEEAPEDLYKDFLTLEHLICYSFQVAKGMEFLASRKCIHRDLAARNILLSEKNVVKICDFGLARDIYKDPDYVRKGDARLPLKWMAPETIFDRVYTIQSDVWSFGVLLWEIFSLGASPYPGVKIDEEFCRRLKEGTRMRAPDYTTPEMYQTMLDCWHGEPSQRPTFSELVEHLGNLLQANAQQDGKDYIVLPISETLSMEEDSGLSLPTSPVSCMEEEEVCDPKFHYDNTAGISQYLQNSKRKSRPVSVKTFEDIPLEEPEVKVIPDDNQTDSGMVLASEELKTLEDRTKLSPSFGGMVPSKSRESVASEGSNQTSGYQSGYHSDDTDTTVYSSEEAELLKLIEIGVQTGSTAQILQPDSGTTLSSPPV

[10] = biological target: T3, hJAK2 (Homo sapiens, UniProt O60674); assay: Cerep LANCE kinase assay hJAK2 (S1 assay 33); type: biochemical; conditions: assay number 33
T3 construct: purchased Cerep (LANCE kinase assay platform, contract assay)
T3 sequence (O60674 whole entry): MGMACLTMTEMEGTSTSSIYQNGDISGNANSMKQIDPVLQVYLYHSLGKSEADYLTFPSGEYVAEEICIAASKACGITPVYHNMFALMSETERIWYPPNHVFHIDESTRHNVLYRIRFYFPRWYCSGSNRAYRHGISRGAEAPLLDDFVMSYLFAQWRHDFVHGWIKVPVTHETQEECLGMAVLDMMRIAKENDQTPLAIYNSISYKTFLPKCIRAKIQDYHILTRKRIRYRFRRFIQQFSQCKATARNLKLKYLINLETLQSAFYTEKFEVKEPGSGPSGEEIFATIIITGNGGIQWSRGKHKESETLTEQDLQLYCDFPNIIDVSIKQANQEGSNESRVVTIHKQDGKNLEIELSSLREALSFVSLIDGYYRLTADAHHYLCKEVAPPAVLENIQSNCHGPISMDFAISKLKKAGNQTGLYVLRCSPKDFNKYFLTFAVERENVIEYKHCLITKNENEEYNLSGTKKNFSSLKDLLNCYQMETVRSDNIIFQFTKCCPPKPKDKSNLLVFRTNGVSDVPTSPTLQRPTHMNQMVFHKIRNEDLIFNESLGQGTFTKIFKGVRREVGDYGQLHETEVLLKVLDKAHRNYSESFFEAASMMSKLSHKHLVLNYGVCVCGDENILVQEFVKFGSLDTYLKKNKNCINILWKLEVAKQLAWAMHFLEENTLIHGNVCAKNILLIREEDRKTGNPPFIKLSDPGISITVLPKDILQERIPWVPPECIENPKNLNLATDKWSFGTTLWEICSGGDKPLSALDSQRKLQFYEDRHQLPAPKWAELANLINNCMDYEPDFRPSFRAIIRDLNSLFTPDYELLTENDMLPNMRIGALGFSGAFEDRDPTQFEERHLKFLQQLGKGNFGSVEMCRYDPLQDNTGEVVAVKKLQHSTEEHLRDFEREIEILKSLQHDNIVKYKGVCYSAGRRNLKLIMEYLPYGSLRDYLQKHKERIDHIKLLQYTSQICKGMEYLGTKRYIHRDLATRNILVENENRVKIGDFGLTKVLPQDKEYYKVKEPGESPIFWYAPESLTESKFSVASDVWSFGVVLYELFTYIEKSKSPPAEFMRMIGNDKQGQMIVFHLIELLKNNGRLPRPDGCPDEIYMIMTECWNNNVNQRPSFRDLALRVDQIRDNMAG

[11] = tested on: DLD-1; assay: cells; type: cell-based; conditions: assay number 23
[12] = biological target: T4, hGSK3b (Homo sapiens, UniProt P49841); assay: Cerep LANCE kinase assay hGSK3b (S1 assay 34); type: biochemical; conditions: assay number 34
T4 construct: purchased Cerep (LANCE kinase assay platform, contract assay)
T4 sequence (P49841 whole entry): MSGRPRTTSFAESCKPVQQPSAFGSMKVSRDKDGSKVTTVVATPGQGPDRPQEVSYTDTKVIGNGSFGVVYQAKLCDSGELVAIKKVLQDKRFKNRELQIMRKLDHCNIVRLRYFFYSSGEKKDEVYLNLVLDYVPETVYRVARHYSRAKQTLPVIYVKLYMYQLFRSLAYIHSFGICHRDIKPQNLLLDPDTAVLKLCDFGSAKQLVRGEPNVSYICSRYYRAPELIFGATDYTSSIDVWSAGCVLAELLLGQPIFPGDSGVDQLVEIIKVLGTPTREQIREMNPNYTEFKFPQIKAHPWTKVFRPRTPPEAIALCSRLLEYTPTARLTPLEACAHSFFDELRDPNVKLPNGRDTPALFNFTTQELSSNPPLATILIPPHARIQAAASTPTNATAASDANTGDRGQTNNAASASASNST

[13] = tested on: ECFC/ADSC co-culture cell nuclei number
[14] = biological target: T5, hFLT3 (Homo sapiens, UniProt P36888); assay: Cerep LANCE kinase assay hFLT3 (S1 assay 35); type: biochemical; conditions: assay number 35
T5 construct: purchased Cerep (LANCE kinase assay platform, contract assay)
T5 sequence (P36888 27-993): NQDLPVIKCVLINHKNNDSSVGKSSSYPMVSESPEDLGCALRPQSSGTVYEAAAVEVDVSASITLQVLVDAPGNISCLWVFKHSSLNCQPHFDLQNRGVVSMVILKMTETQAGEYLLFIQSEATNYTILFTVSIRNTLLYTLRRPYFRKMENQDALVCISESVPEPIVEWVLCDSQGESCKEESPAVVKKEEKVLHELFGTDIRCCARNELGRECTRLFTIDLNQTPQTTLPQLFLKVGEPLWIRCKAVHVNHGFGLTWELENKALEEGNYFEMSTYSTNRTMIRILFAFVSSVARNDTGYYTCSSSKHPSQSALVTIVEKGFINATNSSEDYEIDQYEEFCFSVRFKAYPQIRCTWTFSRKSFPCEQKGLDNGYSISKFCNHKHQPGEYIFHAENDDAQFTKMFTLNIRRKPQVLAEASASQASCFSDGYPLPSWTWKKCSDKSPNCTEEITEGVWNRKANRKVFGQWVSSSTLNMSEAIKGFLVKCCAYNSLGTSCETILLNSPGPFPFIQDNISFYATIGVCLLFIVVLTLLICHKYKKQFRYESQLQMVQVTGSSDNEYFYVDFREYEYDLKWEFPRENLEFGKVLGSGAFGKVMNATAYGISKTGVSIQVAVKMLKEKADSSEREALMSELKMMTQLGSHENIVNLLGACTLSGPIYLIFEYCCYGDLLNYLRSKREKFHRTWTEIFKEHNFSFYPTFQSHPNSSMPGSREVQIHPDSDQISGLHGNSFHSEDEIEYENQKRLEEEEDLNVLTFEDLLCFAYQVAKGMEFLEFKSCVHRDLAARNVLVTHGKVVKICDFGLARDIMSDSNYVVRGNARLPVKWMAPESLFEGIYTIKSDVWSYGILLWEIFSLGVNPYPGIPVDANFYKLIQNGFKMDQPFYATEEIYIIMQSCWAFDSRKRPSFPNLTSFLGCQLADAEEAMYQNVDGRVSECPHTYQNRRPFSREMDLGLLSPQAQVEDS

[15] = tested on: RKO; assay: cells; type: cell-based; conditions: assay number 29
[16] = tested on: endothelial tube formation in co-cultures of ECFCs and ADSCs treated with VEGF; assay: cells; type: cell-based, human
[17] = tested on: SW480; assay: cells; type: cell-based; conditions: assay number 24
[18] = tested on: HeLa cells; assay: cells; type: cell-based; conditions: for Hela CellCycMod PI 2N IC50/EC50: assay number 14; for Hela CellCycMod PI 4N IC50/EC50: assay number 16; for Hela CellCycMod PI MI IC50/EC50: assay number 17; for Hela CellCycMod PI Cell Number IC50/EC50: assay number 18; for Hela CellCycMod PI S Phase IC50/EC50: assay number 15

SMILES	Basal_Viability ATP Colo 320 IC50/EC50 ([1]; basal) [µM]	Basal_Viability ATP HT-29 IC50/EC50 ([2]; basal) [µM]	WntCondMedia_bCatenin C2C12 IC50/EC50 [3] [µM]	Basal_Viability ATP SNU-C1 IC50/EC50 ([4]; basal) [µM]	Basal_Viability ATP HCT116 IC50/EC50 [5] [µM]	GSK3b inh pretreated_Viability ATP HCT116 IC50/EC50 [6] [µM]	hp70S6K1 LANCE IC50/EC50 [7] [µM]	WntCondMedia_Alk Phos C2C12 IC50/EC50 [8] [µM]	hKDR LANCE IC50/EC50 [9] [µM]	hJAK2 LANCE IC50/EC50 [10] [µM]	Basal_Viability ATP DLD-1 IC50/EC50 ([11]; basal) [µM]	hGSK3b LANCE IC50/EC50 [12] [µM]	VEGF_ADSC\ECFC Angio Hoechst NucArea IC50/EC50 [13] [µM]	hFLT3 LANCE IC50/EC50 [14] [µM]	Basal_Viability ATP RKO IC50/EC50 ([15]; basal) [µM]	VEGF_ADSC\ECFC Angio CD31 TubeArea IC50/EC50 [16] [µM]	Hela CellCycMod PI 2N IC50/EC50 [18] [µM]	Hela CellCycMod PI 4N IC50/EC50 [18] [µM]	Hela CellCycMod PI MI IC50/EC50 [18] [µM]	Hela CellCycMod PI Cell Number IC50/EC50 [18] [µM]	other results
Cc1cc(C2CCCCC2)n(O)c(=O)c1.NCCO [NCGC00017112-10]	0.2084	7.035	> 20	> 20	0.6557	0.3898	> 20	1.0476	> 20	> 20	0.316	> 20	> 10	> 20	0.2329	> 10	> 10	> 10	> 10	0.5693	Basal_Viability ATP SW480 IC50/EC50 ([17]; basal): 0.469 µM
O=C(CCl)c1ccc(Cl)cc1Cl [NCGC00091258-05]	0.5301	8.5217	0.3728	2.9752	6.3	1.098	> 20	> 20	> 20	> 20	2.0651	> 20	6.1739	> 20	4.299	2.4875	0.514	> 10	0.541	0.35	Basal_Viability ATP SW480 IC50/EC50 ([17]; basal): 1.249 µM; Hela CellCycMod PI S Phase IC50/EC50 [18]: > 10 µM
Cc1cc(=O)c2c(O)c3c(O)cc(=O)c4c3c3c(cc(O)c1c23)C(C)(C)C=4O [NCGC00160275-03]	0.08199	3.006	1.0715	0.3321	0.07747	0.05735	> 20	2.9111	> 20	> 20	0.07089	6.9	2.074	1.97	0.0754	0.1005	> 10	> 10	> 10	1.0003	Basal_Viability ATP SW480 IC50/EC50 ([17]; basal): 0.05797 µM; Hela CellCycMod PI S Phase IC50/EC50 [18]: > 10 µM
COc1cc(NCc2ccc3nc(N)nc(N)c3c2C)cc(OC)c1OC [NCGC00161419-05]	–	–	0.0033	–	0.02309	0.00392	> 20	> 20	> 20	> 20	–	> 20	> 10	> 20	–	4.418	> 10	> 10	> 10	3.8068	Basal_Viability ATP Colo 320 IC50/EC50 [1]: 0.3859 µM; Basal_Viability ATP HT-29 IC50/EC50 [2]: 0.02122 µM; Basal_Viability ATP SNU-C1 IC50/EC50 [4]: 5.1323 µM; Basal_Viability ATP DLD-1 IC50/EC50 [11]: 0.1951 µM; Basal_Viability ATP RKO IC50/EC50 [15]: 0.00272 µM; Basal_Viability ATP SW480 IC50/EC50 [17]: 0.0591 µM; Hela CellCycMod PI S Phase IC50/EC50 [18]: > 10 µM
